Test results published in BigSolDB 2.1.

COc1cc([N+](=O)[O-])c(OC)cc1Cl
Conditions	solubility (mole fraction)
in 1-methoxy-2-propanol, 282.2 K	0.00313
in 1-methoxy-2-propanol, 287.1 K	0.00354
in 1-methoxy-2-propanol, 291.6 K	0.00392
in 1-methoxy-2-propanol, 296 K	0.00428
in 1-methoxy-2-propanol, 300.3 K	0.00466
in 1-methoxy-2-propanol, 304.6 K	0.00648
in 1-methoxy-2-propanol, 309 K	0.00937
in 1-methoxy-2-propanol, 313.1 K	0.0123
in 1-methoxy-2-propanol, 317.2 K	0.0154
in 1-methoxy-2-propanol, 321.3 K	0.0191
in 1-methoxy-2-propanol, 325.7 K	0.0258
in 2-ethoxyethanol, 276.7 K	0.00187
in 2-ethoxyethanol, 280.8 K	0.00226
in 2-ethoxyethanol, 284.9 K	0.00266
in 2-ethoxyethanol, 289.1 K	0.00307
in 2-ethoxyethanol, 293.2 K	0.00347
in 2-ethoxyethanol, 297.3 K	0.00389
in 2-ethoxyethanol, 301.4 K	0.00502
in 2-ethoxyethanol, 305.5 K	0.00638
in 2-ethoxyethanol, 309.6 K	0.00874
in 2-ethoxyethanol, 314 K	0.0139
in 2-ethoxyethanol, 320.6 K	0.0193
in 2-ethoxyethanol, 327.1 K	0.0237
in 2-methoxyethanol, 283.2 K	0.00622
in 2-methoxyethanol, 290.9 K	0.00838
in 2-methoxyethanol, 295.3 K	0.00953
in 2-methoxyethanol, 299.4 K	0.0107
in 2-methoxyethanol, 303.1 K	0.0119
in 2-methoxyethanol, 306.8 K	0.0146
in 2-methoxyethanol, 313 K	0.0177
in 2-methoxyethanol, 317.9 K	0.0201
in 2-methoxyethanol, 321.7 K	0.0226
in 2-methoxyethanol, 325.8 K	0.0282
in 2-methoxyethanol, 329.8 K	0.0335
in diethylene glycol, 282.1 K	0.000239
in diethylene glycol, 286.5 K	0.000275
in diethylene glycol, 290.8 K	0.000321
in diethylene glycol, 296.1 K	0.000364
in diethylene glycol, 301.6 K	0.000402
in diethylene glycol, 306.2 K	0.00048
in diethylene glycol, 310.7 K	0.000573
in diethylene glycol, 315.2 K	0.000717
in diethylene glycol, 319.5 K	0.000876
in diethylene glycol, 323.6 K	0.00109
in diethylene glycol, 327.7 K	0.00136

COc1cc(Cl)c(OC)cc1N
Conditions	solubility (mole fraction)
in 1-methoxy-2-propanol, 277.4 K	0.0208
in 1-methoxy-2-propanol, 281.6 K	0.0267
in 1-methoxy-2-propanol, 289.4 K	0.0327
in 1-methoxy-2-propanol, 294.3 K	0.0369
in 1-methoxy-2-propanol, 298.5 K	0.045
in 1-methoxy-2-propanol, 302.6 K	0.0536
in 1-methoxy-2-propanol, 307.6 K	0.0649
in 1-methoxy-2-propanol, 312.6 K	0.0772
in 1-methoxy-2-propanol, 316.8 K	0.089
in 1-methoxy-2-propanol, 320.9 K	0.101
in 1-methoxy-2-propanol, 326.3 K	0.125
in 2-ethoxyethanol, 278.6 K	0.0282
in 2-ethoxyethanol, 283.5 K	0.0322
in 2-ethoxyethanol, 287.6 K	0.0361
in 2-ethoxyethanol, 291.7 K	0.04
in 2-ethoxyethanol, 295.8 K	0.0453
in 2-ethoxyethanol, 300.3 K	0.0559
in 2-ethoxyethanol, 306.7 K	0.0672
in 2-ethoxyethanol, 310.9 K	0.0785
in 2-ethoxyethanol, 315 K	0.0894
in 2-ethoxyethanol, 319.7 K	0.1
in 2-ethoxyethanol, 323.9 K	0.117
in 2-ethoxyethanol, 328 K	0.138
in 2-methoxyethanol, 277.2 K	0.0282
in 2-methoxyethanol, 281.1 K	0.034
in 2-methoxyethanol, 285.5 K	0.0427
in 2-methoxyethanol, 291.2 K	0.0497
in 2-methoxyethanol, 295.3 K	0.0549
in 2-methoxyethanol, 299.4 K	0.06
in 2-methoxyethanol, 303.6 K	0.0665
in 2-methoxyethanol, 307.7 K	0.0768
in 2-methoxyethanol, 312.1 K	0.0884
in 2-methoxyethanol, 315.7 K	0.0986
in 2-methoxyethanol, 319.6 K	0.112
in 2-methoxyethanol, 324.2 K	0.129
in diethylene glycol, 276.7 K	0.0167
in diethylene glycol, 280.9 K	0.0188
in diethylene glycol, 285.1 K	0.021
in diethylene glycol, 289.4 K	0.0233
in diethylene glycol, 295.5 K	0.0279
in diethylene glycol, 299.6 K	0.0312
in diethylene glycol, 303.8 K	0.0346
in diethylene glycol, 307.9 K	0.0396
in diethylene glycol, 312 K	0.0447
in diethylene glycol, 316.5 K	0.0512
in diethylene glycol, 320.8 K	0.0584
in diethylene glycol, 325.3 K	0.0675

COc1ccc(OC)c(N)c1
Conditions	solubility (mole fraction)
in 1-methoxy-2-propanol, 276.6 K	0.0204
in 1-methoxy-2-propanol, 279.7 K	0.0255
in 1-methoxy-2-propanol, 282.8 K	0.0306
in 1-methoxy-2-propanol, 285.9 K	0.0382
in 1-methoxy-2-propanol, 289 K	0.0512
in 1-methoxy-2-propanol, 292.1 K	0.0675
in 1-methoxy-2-propanol, 295.2 K	0.0867
in 1-methoxy-2-propanol, 298.3 K	0.11
in 1-methoxy-2-propanol, 301.6 K	0.14
in 1-methoxy-2-propanol, 305.1 K	0.174
in 1-methoxy-2-propanol, 310.4 K	0.211
in 1-methoxy-2-propanol, 314.7 K	0.239
in 1-methoxy-2-propanol, 318.8 K	0.281
in 1-methoxy-2-propanol, 322.9 K	0.323
in 2-ethoxyethanol, 276.7 K	0.0186
in 2-ethoxyethanol, 279.8 K	0.0238
in 2-ethoxyethanol, 282.9 K	0.029
in 2-ethoxyethanol, 286 K	0.0369
in 2-ethoxyethanol, 289.1 K	0.0481
in 2-ethoxyethanol, 292.2 K	0.0635
in 2-ethoxyethanol, 295.3 K	0.0834
in 2-ethoxyethanol, 298.4 K	0.106
in 2-ethoxyethanol, 301.6 K	0.135
in 2-ethoxyethanol, 304.7 K	0.165
in 2-ethoxyethanol, 308.9 K	0.199
in 2-ethoxyethanol, 313 K	0.231
in 2-ethoxyethanol, 317.1 K	0.262
in 2-ethoxyethanol, 321.4 K	0.311
in 2-ethoxyethanol, 325.5 K	0.371
in 2-methoxyethanol, 276.4 K	0.0331
in 2-methoxyethanol, 280.5 K	0.046
in 2-methoxyethanol, 284.6 K	0.0617
in 2-methoxyethanol, 288.7 K	0.0819
in 2-methoxyethanol, 292.8 K	0.102
in 2-methoxyethanol, 296.9 K	0.123
in 2-methoxyethanol, 301 K	0.15
in 2-methoxyethanol, 305.1 K	0.185
in 2-methoxyethanol, 309.2 K	0.217
in 2-methoxyethanol, 313.4 K	0.254
in 2-methoxyethanol, 316.6 K	0.292
in diethylene glycol, 276.7 K	0.00015
in diethylene glycol, 280.9 K	0.000379
in diethylene glycol, 285 K	0.000611
in diethylene glycol, 289.1 K	0.000885
in diethylene glycol, 293.2 K	0.00119
in diethylene glycol, 297.3 K	0.00165
in diethylene glycol, 301.4 K	0.00325
in diethylene glycol, 303.5 K	0.00532
in diethylene glycol, 305.6 K	0.00751
in diethylene glycol, 307.7 K	0.015
in diethylene glycol, 309.8 K	0.0248
in diethylene glycol, 311.9 K	0.0458
in diethylene glycol, 314 K	0.0704
in diethylene glycol, 316.1 K	0.104
in diethylene glycol, 318.2 K	0.14
in diethylene glycol, 320.7 K	0.177
in diethylene glycol, 323.7 K	0.216
